The text below walks through data of patent publication US10960045B2, “Methods and compositions for the treatment of epidermolysis bullosa” (Constant Therapeutics LLC, priority 2015, dated 2021).

“Also recorded” adds a separate entry of the source.

For experiment [1], the system named is Recessive dystrophic epidermolysis bullosa (RDEB) mice. As to conditions: four weeks, results published by Nyström et al.; cited from earlier work.
Experiment [2] shares this test system. Kind of experiment: Toe length and loss/fusion of digits in RDEB mice treated four weeks. It is filed as in vivo, mouse. How it is done: FIGS. 1A-1B. Recessive dystrophic epidermolysis bullosa (RDEB) mice were treated with angiotensin (1-7) peptide for four weeks. FIG. 1A consists of images of the right forepaw of a RDEB mouse before and after treatment with angiotensin (1-7). […] FIG. 1B is a graph of the average toe length of RDEB mice treated with angiotensin (1-7) peptide for four weeks (“Tarix”) or a vehicle control (“Vehicle”) as a percentage of average toe length before treatment.
FIG. 2 is a graph of average toe length of recessive dystrophic epidermolysis bullosa (RDEB) mice treated with either angiotensin (1-7) peptide, losartan, or a vehicle control for four weeks as a percentage of average toe length before treatment.
Recessive dystrophic epidermolysis bullosa (RDEB) is caused by a mutation in the gene encoding type VII collagen. RDEB mice display marked fibrosis, which leads to deleterious phenotypes including the fibrosis-driven loss and fusion of digits over time (see, e.g., Nyström, A. et al., EMBO MOLECULAR MEDICINE 7(9):1211-28 (2015)).
RDEB mice were treated with angiotensin (1-7) for four weeks (nine mice) or left untreated (three mice). Three wild type mice served as controls.

Experiment [3] deals with tenascin-C. Kind of experiment: Tenascin-C immunostaining of mouse forepaw cryosections. Particulars: RDEB mice, four weeks treatment, relative to untreated RDEB controls; P<0.001. It counts as in vivo. The source says:
FIG. 3 depicts images of tenascin-C immunostained cryosections of mouse forepaws. The cryosections were obtained from age-matched wild-type mice, untreated recessive dystrophic epidermolysis bullosa (RDEB) mice, and RDEB mice treated with angiotensin (1-7) for four weeks. Each top panel corresponds to cryosections of the walking pads of a mouse, and each bottom panel corresponds to sections of toes. Tenascin-C is present at low abundance in uninjured skin, and it increases in fibrotic skin. […] Tenascin-C staining was observed primarily just below the dermal-epidermal junction in angiotensin (1-7) treated mice, which corresponds to the initial site of injury in RDEB mice. Cells were counterstained with 4′,6-diamidino-2-phenylindole (DAPI), and the scale bar corresponds to 200 μm.
FIG. 4 is a graph depicting the quantification of the fluorescence intensity of cryosection images of mouse forepaws immunostained with an anti-tenascin-C antibody. […]
Immunostaining was performed on cryosections of mouse forepaws of wild-type mice, untreated RDEB mice, and RDEB mice treated with angiotensin (1-7) for four weeks. […] Tenascin-C immunostaining was visualized using fluorescence microscopy (FIG. 3). Immunostaining was quantified with ImageJ software on images obtained with identical microscope settings and exposure time. […]

The test system of experiment [4] is α-SMA positive myofibroblasts. Kind of experiment: α-SMA immunostaining of mouse forepaw cryosections. As to conditions: RDEB mice, four weeks treatment, relative to untreated RDEB mice. It counts as in vivo. The source says:
(§1) FIG. 5 depicts images of α-SMA (top panel), fibronectin (middle panel), and CD11b (bottom panel) immunostained cryosections of mouse forepaws. The cryosections were obtained from age-matched wild-type mice, untreated recessive dystrophic epidermolysis bullosa (RDEB) mice, and RDEB mice treated with angiotensin (1-7) for four weeks. […] Cells were counterstained with 4′,6-diamidino-2-phenylindole (DAPI).
(§2) Cryosections of mouse forepaws were also immunostained for α-SMA (alpha smooth muscle actin), fibronectin, and CD11b. α-SMA is a myofibroblast cell marker, which correlates with fibrotic disease. Fibronectin correlates with dermal fibrosis. CD11b (integrin αM subunit) is a leukocyte marker, which is expressed by monocytes, granulocytes (e.g., neutrophils), macrophages, and natural killer cells.

The test system of another experiment is fibronectin. Kind of experiment: Fibronectin immunostaining of mouse forepaw cryosections. It counts as in vivo. Particulars: RDEB mice, four weeks treatment, relative to untreated RDEB mice.
From the text: as §1, §2

Experiment [5] has as its system CD11b-positive inflammatory leukocytes. Kind of experiment: CD11b immunostaining of mouse forepaw cryosections, CD11b-positive cells counted with ImageJ. It is filed as in vivo. Particulars: RDEB mice, four weeks treatment.
From the text: as §1
FIG. 6 is a graph depicting the quantification of CD11b-positive cells per mm^2 in images of immunostained cryosections of mouse forepaws. The cryosections were obtained from age-matched wild-type mice, untreated recessive dystrophic epidermolysis bullosa (RDEB) mice, and RDEB mice treated with angiotensin (1-7) for four weeks. CD11b stains neutrophils and macrophages. […] Each bar corresponds to a mean value, and error bars correspond to standard error of the mean (SEM).
Cryosections of mouse forepaws were also immunostained for α-SMA (alpha smooth muscle actin), fibronectin, and CD11b. α-SMA is a myofibroblast cell marker, which correlates with fibrotic disease. Fibronectin correlates with dermal fibrosis. […]
The number of CD11b-positive cells per mm^2 was quantified using ImageJ software. […] Identical thresholds were applied to all images, the images were converted to binary images, and all particles >10 pixles^2 were automatically counted.

The test system of experiment [6] is tenascin-C. Kind of experiment: Western blot of whole protein lysates of mouse forepaws: tenascin-C. It is filed as in vivo. As to conditions: RDEB mouse forepaw lysates, four weeks treatment, relative to untreated RDEB mice. The source says:
(§3) FIG. 7 depicts tenascin-C, thrombospondin-1, pSMAD2/3, galectin 3, and β-tubulin Western blots of whole protein lysates of mouse forepaws. Samples were obtained from age-matched wild-type mice, untreated recessive dystrophic epidermolysis bullosa (RDEB) mice, and RDEB mice treated with angiotensin (1-7) for four weeks.
(§4) FIG. 8 is a graph depicting the quantification of Western blot bands immunostained with antibodies directed against tenascin-C, thrombospondin-1, pSMAD2/3, and galectin 3. Samples consisted of whole protein lysates of mouse forepaws obtained from age-matched wild-type mice, untreated recessive dystrophic epidermolysis bullosa (RDEB) mice, and RDEB mice treated with angiotensin (1-7) for four weeks. Samples were normalized against β-tubulin. […] Each bar corresponds to a mean value, and error bars correspond to standard error of the mean (SEM).
(§5) Whole protein lysates from mouse forepaws were analyzed by Western blotting with antibodies directed against tenascin-C, thrombospondin-1, pSMAD2/3, galectin 3, and β-tubulin (FIG. 7). Thrombospondin 1 can activate transforming growth factor beta (TGFβ) signaling, which is associated with fibrosis. TGFβ signals through an intracellular SMAD pathway, and thus, phosphorylated-SMAD (e.g., pSMAD2/3) correlates with TGFβ-associated fibrosis. […] Western blotting results were quantified by densitometry and normalized against β-tubulin.
Background: In western blotting, separated proteins are transferred to a membrane and probed.

The subject of a further experiment is thrombospondin-1. Kind of experiment: Western blot of whole protein lysates of mouse forepaws: thrombospondin-1. It is filed as in vivo. As to conditions: RDEB mouse forepaw lysates, four weeks treatment, relative to untreated RDEB mice.
From the text: as §3, §4, §5

For another experiment, the system named is pSMAD2/3. Kind of experiment: Western blot of whole protein lysates of mouse forepaws: pSMAD2/3. It counts as in vivo. As to conditions: RDEB mouse forepaw lysates, four weeks treatment, relative to untreated RDEB mice.
From the text: as §3, §4, §5

A further experiment deals with galectin 3. Kind of experiment: Western blot of whole protein lysates of mouse forepaws: galectin 3. It is filed as in vivo. As to conditions: RDEB mouse forepaw lysates, four weeks treatment, relative to untreated RDEB mice.
From the text: as §3, §4, §5

Experiment [7] relates to Recessive dystrophic epidermolysis bullosa (RDEB) mice. Kind of experiment: Blistering of forepaws of RDEB mice. It counts as in vivo, mouse. Particulars: four weeks treatment, wild type controls lacked blistering.

Consider `CCCCc1nc(Cl)c(CO)n1Cc1ccc(-c2ccccc2-c2nn[nH]n2)cc1` [losartan], for which, in experiment [1], the “average toe length as a percentage of average toe length before treatment (losartan)” value is “similar”.

As to “Asp^1-Arg^2-Val^3-Tyr^4-Ile^5-His^6-Pro^7 [angiotensin (1-7)]”, the “average toe length as a percentage of average toe length before treatment” value in [2] (relative to vehicle-treated RDEB controls (results published by Nyström et al.)) is listed as “significant reduction in the decrease in toe length; also recorded: protected against RDEB-associated decreases in toe length”. Further, the “fibrosis-driven loss and fusion of digits” value in experiment [2] (right forepaw, four weeks treatment) is “reduced the expression of this deleterious phenotype; also recorded: protected against RDEB-associated decreases in toe length and fusion of digits”. The “tenascin-C immunostaining (fluorescence intensity) in forepaw dermis” value with tenascin-C [3] is given as “significant (P<0.001) reduction in tenascin-C staining; also recorded: significantly lowered the amount of tenascin-C staining; also recorded: significant reduction in tenascin-C immunostaining”. For the same compound, in experiment [4], the “α-SMA positive cells (myofibroblasts) in forepaw” value is recorded as “fewer α-SMA positive cells; also recorded: reduced the number of α-SMA positive myofibroblasts”. Besides, the “dermal fibronectin immunostaining in forepaw” value in the experiment on fibronectin is recorded as “less fibronectin immunostaining; also recorded: reduced”. Also, the “CD11b-positive cells in forepaw dermis” value in [5] (relative to untreated RDEB mice) is on record as “fewer CD11b-positive cells; also recorded: reduced; also recorded: reduction in CD11b-positive cell density”. Further, the “number of CD11b-positive cells per mm^2 compared with wild type mice” value in experiment [5] (versus age-matched wild type mice) is “about the same number of CD11b-positive cells per mm^2 as wild type mice”. For the same compound, the “tenascin-C abundance, Western blot normalized against β-tubulin” value with tenascin-C [6] is on record as “reduced tenascin-C”. The “thrombospondin-1 abundance, Western blot normalized against β-tubulin” value with thrombospondin-1 is listed as “reduced abundance of the TGFβ activator thrombospondin-1”. For the same compound, in the experiment with pSMAD2/3, the “phosphorylated SMAD2/3 (pSMAD2/3) abundance, Western blot normalized against β-tubulin” value is “reduced abundance of phosphorylated SMAD2/3”. Besides, in the experiment with galectin 3, the “galectin-3 abundance, Western blot normalized against β-tubulin” value was “reduced galectin-3”. In addition, the blistering of forepaws entry in experiment [7] is “displayed blistering”.
